In patent publication US11931343B2 (ARCUS BIOSCIENCES, INC., priority 2018, dated 2024):
pIC50: −log10 of the molar value.

Molecular target: T1, human CD73 (Homo sapiens, UniProt P21589)
T1 sequence (P21589 27-549): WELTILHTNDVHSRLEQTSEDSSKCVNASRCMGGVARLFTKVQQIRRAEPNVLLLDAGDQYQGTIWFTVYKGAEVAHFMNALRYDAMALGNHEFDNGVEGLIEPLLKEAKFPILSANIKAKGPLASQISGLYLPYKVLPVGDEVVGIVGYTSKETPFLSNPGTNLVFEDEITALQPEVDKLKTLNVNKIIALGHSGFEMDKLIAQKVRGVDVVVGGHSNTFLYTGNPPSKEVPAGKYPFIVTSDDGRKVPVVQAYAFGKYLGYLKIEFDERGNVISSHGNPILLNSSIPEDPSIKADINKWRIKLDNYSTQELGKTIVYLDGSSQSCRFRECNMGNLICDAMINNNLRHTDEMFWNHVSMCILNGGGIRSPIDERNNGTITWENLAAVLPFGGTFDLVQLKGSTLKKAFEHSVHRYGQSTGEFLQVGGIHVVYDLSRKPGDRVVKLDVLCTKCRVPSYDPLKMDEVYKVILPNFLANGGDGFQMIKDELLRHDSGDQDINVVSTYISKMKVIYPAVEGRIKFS
Assay: Inhibition of Ecto-5′-nucleotidase (CD73) activity in CHO-CD73 cells, phosphate release from AMP
Assay type: cell-based
Conditions: CHO-K1 cells stably transfected with human CD73; 25 μM AMP; 50 minutes, 37° C.; read-out: Potency: CD73 IC50

SMILES | pIC50
Clc1ccc(Cn2nccc2-c2cc(Cl)c3nnn(-c4ccc5cn[nH]c5c4)c3c2)c(Br)c1 [Example 109] | 6.00 to 7.00
FC(F)(F)c1ccc(Cn2nccc2-c2cc(Cl)c3nnn(-c4ccc5cn[nH]c5c4)c3c2)c(Cl)c1 [Example 110] | 6.00 to 7.00
N#Cc1ccc(Cn2nccc2-c2cc(Cl)c3nnn(-c4ccc5cn[nH]c5c4)c3c2)c(F)c1 [Example 112] | > 7.00
N#Cc1ccc(Cn2nccc2-c2cc(C#N)c3nnn(-c4ccc5cn[nH]c5c4)c3c2)cc1 [Example 114] | 6.00 to 7.00
CC(c1ccc(C#N)cc1)n1nccc1-c1ccc2nnn(-c3ccc4cn[nH]c4c3)c2c1 (stereo not shown) [Example 115] | 6.00 to 7.00
CC(c1ccc(C#N)cc1)n1nccc1-c1cc(F)c2nnn(-c3ccc4cn[nH]c4c3)c2c1 (stereo not shown) [Example 116] | 6.00 to 7.00
CC(c1ccc(C#N)cc1)n1nccc1-c1cc(Cl)c2nnn(-c3ccc4cn[nH]c4c3)c2c1 (stereo not shown) [Example 117] | 6.00 to 7.00
CC(c1ccc(C(N)=O)cc1)n1nccc1-c1ccc2nnn(-c3ccc4cn[nH]c4c3)c2c1 (stereo not shown) [Example 118] | < 6.00
c1cc(-c2ccc3nnn(-c4ccc5cn[nH]c5c4)c3c2)n(Cc2ccc(C3CC3)cc2)n1 [Example 119] | 6.00 to 7.00
N#Cc1ccc(Cn2nccc2-c2cc(F)c3nnn(-c4ccc5nc[nH]c5c4)c3c2)cc1 [Example 120] | < 6.00
FC1(F)CN(CCn2nccc2-c2ccc3nnn(-c4ccc5cn[nH]c5c4)c3c2)C1 [Example 121] | < 6.00
FC(F)(F)c1cc(-c2ccnn2Cc2ccc(Cl)cc2Cl)cc2c1nnn2-c1ccc2cn[nH]c2c1 [Example 122] | 6.00 to 7.00
N#Cc1ccc(Cn2nccc2-c2cc(C(F)(F)F)c3nnn(-c4ccc5cn[nH]c5c4)c3c2)cc1 [Example 123] | 6.00 to 7.00
Clc1cc(-c2ccnn2CCc2ccccc2)cc2c1nnn2-c1ccc2cn[nH]c2c1 [Example 124] | 6.00 to 7.00
N#Cc1ccc(Cn2nccc2-c2cc(C(F)(F)F)c3nnn(-c4ccc5cn[nH]c5c4)c3c2)nc1 [Example 125] | 6.00 to 7.00
Clc1ccc(Cn2nccc2-c2ccn3nnc(-c4ccc5cn[nH]c5c4)c3c2)c(Cl)c1 [Example 126] | > 7.00
O=C(O)c1n[nH]c2cc(-n3nnc4c(Cl)cc(-c5ccnn5Cc5ccc(Cl)cc5Cl)cc43)ccc12 [Example 127] | < 6.00
c1ccc(Cn2nccc2-c2cc3c(cn2)nnn3-c2ccc3cn[nH]c3c2)cc1 [Example 128] | 6.00 to 7.00
N#Cc1ccc(Cn2nccc2-c2cnc3nnn(-c4ccc5cn[nH]c5c4)c3c2)cc1 [Example 129] | 6.00 to 7.00
Fc1c(-c2ccnn2Cc2ccccc2)ccc2nnn(-c3ccc4cn[nH]c4c3)c12 [Example 130] | < 6.00
N#Cc1ccc(Cn2nccc2-c2cc(F)c3cnn(-c4ccc5cn[nH]c5c4)c3c2)nc1 [Example 131] | < 6.00
O=C(O)c1cccc(-n2nnc3c(F)cc(-c4ccnn4Cc4ccc(Cl)cc4Cl)cc32)c1 [Example 132] | < 6.00
Fc1cc(-c2ccnn2Cc2ccc(Cl)cn2)cc2c1cnn2-c1ccc2cn[nH]c2c1 [Example 133] | < 6.00
Clc1ccc(Cn2nccc2-c2cnc3nnn(-c4ccc5cn[nH]c5c4)c3c2)c(Cl)c1 [Example 134] | 6.00 to 7.00

SMILES | pIC50
Fc1cc2nnn(-c3ccc4cn[nH]c4c3)c2cc1-c1ccnn1Cc1ccccc1 [Example 136] | < 6.00
Fc1cc(-c2ccnn2Cc2ccccc2)cc2c1nnn2-c1cnc2cn[nH]c2c1 [Example 137] | < 6.00
Fc1cc(-c2ccnn2Cc2ccccc2)cc2c1nnn2-c1cc2[nH]ncc2cn1 [Example 138] | < 6.00
Nc1cc(-n2nnc3c(Cl)cc(-c4ccnn4Cc4ccc(Cl)cc4Cl)cc32)ccn1 [Example 139] | 6.00 to 7.00
N#Cc1ccc(Cn2nccc2-c2cc3c(cn2)nnn3-c2ccc3cn[nH]c3c2)cc1 [Example 140] | 6.00 to 7.00
Clc1ccc(Cn2nccc2-c2cc3c(cn2)nnn3-c2ccc3cn[nH]c3c2)c(Cl)c1 [Example 142] | > 7.00
O=C1CCC(c2cc(F)c3nnn(-c4ccc5cn[nH]c5c4)c3c2)N1Cc1ccc(Cl)cc1Cl (stereo not shown) [Example 143] | < 6.00
N#Cc1ccc(Cn2nccc2-c2cc(F)c3nnn(-c4cc5[nH]ncc5cc4F)c3c2)cc1 [Example 144] | > 7.00
N#Cc1ccc(Cn2nccc2-c2cc(Cl)c3nnn(-c4ccnc(N)c4)c3c2)nc1 [Example 145] | < 6.00
N#Cc1ccc(Cn2nccc2-c2cc3c(cn2)ncn3-c2ccc3cn[nH]c3c2)cc1 [Example 146] | < 6.00
N#Cc1ccc(Cn2nccc2-c2cc3c(cn2)cnn3-c2ccc3cn[nH]c3c2)cc1 [Example 147] | < 6.00
Clc1ccc(Cn2nccc2-c2cc3c(cn2)cnn3-c2ccc3cn[nH]c3c2)nc1 [Example 149] | < 6.00
N#Cc1ccc(Cn2nccc2-c2cc3c(cc2Cl)nnn3-c2ccc3cn[nH]c3c2)cc1 [Example 150] | > 7.00
N#Cc1ccc(Cn2nccc2-c2cc3c(cc2Cl)nnn3-c2ccc3cn[nH]c3c2)cc1 [Example 151] | 6.00 to 7.00
N#Cc1ccc(Cn2nccc2-c2cnc3cnn(-c4ccc5cn[nH]c5c4)c3c2)cc1 [Example 152] | < 6.00
O=c1[nH]c2ccc(-n3ncc4cnc(-c5ccnn5Cc5ccc(Cl)cn5)cc43)cc2[nH]1 [Example 153] | < 6.00
N#Cc1ccc(Cn2nccc2-c2cc3c(cn2)nnn3-c2ccc3[nH]c(=O)[nH]c3c2)cc1 [Example 154] | 6.00 to 7.00
N#Cc1ccc(Cn2nccc2-c2cc(F)c3nnn(-c4ccc5c(c4)NC(=O)C5)c3c2)cc1 [Example 156] | < 6.00
N#Cc1ccc(Cn2nccc2-c2ccc3nnn(-c4ccc5[nH]c(=O)[nH]c5c4)c3c2)cc1 [Example 157] | 6.00 to 7.00
O=c1[nH]c2ccc(-n3nnc4ncc(-c5ccnn5Cc5ccc(Cl)cc5Cl)cc43)cc2[nH]1 [Example 158] | 6.00 to 7.00
O=c1[nH]c2cc(-n3nnc4c(F)cc(-c5ccnn5Cc5ccc(Cl)cc5Cl)cc43)ccc2o1 [Example 159] | < 6.00
Nc1cc(-n2nnc3c(F)cc(-c4ccnn4Cc4ccc(Cl)cn4)cc32)ccc1O [Example 160] | < 6.00
O=c1[nH]c2cc(-n3nnc4c(F)cc(-c5ccnn5Cc5ccc(Cl)cn5)cc43)ccc2o1 [Example 161] | < 6.00
Nc1cccc(-n2nnc3c(Cl)cc(-c4ccnn4Cc4ccc(Cl)cc4Cl)cc32)c1 [Example 162] | < 6.00

SMILES | pIC50
Clc1ccc(Cn2nccc2-c2cnc3cnn(-c4ccc5cn[nH]c5c4)c3c2)c(Cl)c1 [Example 163] | 6.00 to 7.00
Clc1ccc(Cn2nccc2-c2cnc3cnn(-c4ccc5cn[nH]c5c4)c3c2)nc1 [Example 164] | 6.00 to 7.00
O=c1[nH]c2ccc(-n3nnc4cnc(-c5ccnn5Cc5ccc(Cl)cn5)cc43)cc2[nH]1 [Example 165] | 6.00 to 7.00
N#Cc1ccc(Cn2nccc2-c2cc(F)c3nnn(-c4ccc5oc(=O)[nH]c5c4)c3c2)cc1 [Example 166] | < 6.00
Cc1nc(-c2ccnn2Cc2ccc(C#N)cc2)cc2c1nnn2-c1ccc2cn[nH]c2c1 [Example 169] | 6.00 to 7.00
O=c1[nH]c2ccc(-n3nnc4c(F)cc(-c5ccnn5Cc5ccc(Cl)cc5Cl)cc43)cc2[nH]1 [Example 170] | 6.00 to 7.00
O=c1[nH]c2ccc(-n3nnc4c(F)cc(-c5ccnn5Cc5ccc(Cl)cn5)cc43)cc2[nH]1 [Example 171] | 6.00 to 7.00
Fc1ccc(Cn2nccc2-c2cc(F)c3nnn(-c4ccc5nc[nH]c5c4)c3c2)nc1 [Example 172] | < 6.00
O=c1[nH]c2ccc(-n3nnc4c(F)cc(-c5ccnn5Cc5ccc(F)cn5)cc43)cc2[nH]1 [Example 173] | 6.00 to 7.00
O=c1[nH]c2ccc(-n3nnc4c(F)cc(-c5ccnn5Cc5ccc(F)cn5)cc43)cc2[nH]1 [Example 174] | < 6.00
N#Cc1ccc(Cn2nccc2-c2cc(F)c3c(N)nn(-c4ccc5[nH]c(=O)[nH]c5c4)c3c2)cc1 [Example 175] | < 6.00
N#Cc1ccc(Cn2nccc2-c2cc(F)c3nnn(-c4ccc5[nH]c(=O)[nH]c5c4)c3c2)nc1 [Example 176] | 6.00 to 7.00
Fc1cc(-c2ccnn2Cc2ccc(-c3ncco3)cc2)cc2c1nnn2-c1ccc2cn[nH]c2c1 [Example 177] | < 6.00
N#Cc1ccc(Cn2nccc2-c2cc3c(cn2)nnn3-c2ccc3[nH]c(=O)[nH]c3c2)nc1 [Example 178] | 6.00 to 7.00
N#Cc1ccc(Cn2nccc2-c2cnc3cnn(-c4ccc5cn[nH]c5c4)c3c2)nc1 [Example 179] | < 6.00
N#Cc1ccc(Cn2nccc2-c2cnc3cnn(-c4ccc5[nH]c(=O)[nH]c5c4)c3c2)cc1 [Example 180] | < 6.00
Fc1ccc(Cn2nccc2-c2cnc3cnn(-c4ccc5cn[nH]c5c4)c3c2)nc1 [Example 181] | < 6.00
CC(O)c1ccc(Cn2nccc2-c2cc(F)c3nnn(-c4ccc5[nH]c(=O)[nH]c5c4)c3c2)cc1 (stereo not shown) [Example 182] | < 6.00
CC(C)(O)c1ccc(Cn2nccc2-c2cc(F)c3nnn(-c4ccc5[nH]c(=O)[nH]c5c4)c3c2)cc1 [Example 183] | < 6.00
O=C(Cn1nccc1-c1cc(Cl)c2nnn(-c3ccc4cn[nH]c4c3)c2c1)N1CCCCC1 [Example 184] | < 6.00
CC(NC(=O)Cn1nccc1-c1cc(Cl)c2nnn(-c3ccc4cn[nH]c4c3)c2c1)c1ccccc1 (stereo not shown) [Example 185] | < 6.00
O=c1[nH]c2ccc(-n3nnc4c(Cl)cc(-c5ccnn5Cc5ccc(Cl)cc5Cl)cc43)cc2[nH]1 [Example 186] | 6.00 to 7.00
